The values below come from the supplement of paper PMC11208160.
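Note: IS621 recombinase and bridge RNA in Escherichia coli cells.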

The data set in a line: recombinant barcode read abundance after kanamycin selection (control-corrected) (log10(CPM+1)); higher = more efficient recombination; sequences stand for … in AGTGCAGAGAAAATCGGCCAGTTTTCTCTGCCTGCAGTCCGCATGCCGT…AGATTTATGCAGCGGACTGCCTTTCTCCCAAAGTGATAAACCGGACAGTATCATGGACCGGTTTTCCCGGTAATCCGTATTTGCAAGGTTGGTTTCACT; site = the 11-nt target. In outline:
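In E. coli, a pooled library matched targets to IS621 bridge RNA target-binding loops and was introduced alongside a donor plasmid. Cells went onto chloramphenicol/ampicillin/kanamycin with 0.1 mM IPTG or onto chloramphenicol/ampicillin LB agar as control, in duplicate. Recombination efficiency, from recombinant-junction barcodes as counts per million, is averaged and control-corrected. It is reported as log10(CPM+1).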
Take “TTACGCACTTGGGTTCTAACCTGTTGCCT (site TTACGCACTAG)”: the “recombinant barcode read abundance (log10)” value was found to be 1.34.

Take “TTACGCGCTTGGGTTCTAACCTGTTGCGG (site TTACGAGCTCC)”: the “recombinant barcode read abundance (log10)” value was 0.258.

Take “TTACGCGCTTGGGTTCTAACCTGTTGCGG (site TTACGCGCTCC)”: the “recombinant barcode read abundance (log10)” value was 1.67.

Turning to “TTACGCGCTTGGGTTCTAACCTGTTGCGG (site TTACGGGCTCC)”, the “recombinant barcode read abundance (log10)” value is 0.0728.

As to “TTACGCGCTTGGGTTCTAACCTGTTGCGG (site TTACGTGCTCC)”, the “recombinant barcode read abundance (log10)” value came to 0.0492.

Regarding “TTAGACTCTTGGGTTCTAACCTGTTGCCA (site TTAGACTCTTA)”, the “recombinant barcode read abundance (log10)” value was 0.0659.

In the case of “TTAGACTCTTGGGTTCTAACCTGTTGCCA (site TTAGACTCTTG)”, the “recombinant barcode read abundance (log10)” value turned out to be 1.06.

Consider “TTAGCTTCTTGGGTTCTAACCTGTTGCCT (site TTAGCATCTAG)”, for which the “recombinant barcode read abundance (log10)” value came out at 0.078.

For the sequence “TTAGCTTCTTGGGTTCTAACCTGTTGCCT (site TTAGCCTCTAG)”, the “recombinant barcode read abundance (log10)” value was 0.0176.

Take “TTAGCTTCTTGGGTTCTAACCTGTTGCCT (site TTAGCGTCTAG)”: the “recombinant barcode read abundance (log10)” value was determined as 0.0371.

In the case of “TTAGCTTCTTGGGTTCTAACCTGTTGCCT (site TTAGCTTCTAG)”, the “recombinant barcode read abundance (log10)” value was found to be 0.163.

Consider “TTATACACTTGGGTTCTAACCTGTTGCAG (site CAGCGGTCTTC)”, for which the “recombinant barcode read abundance (log10)” value turned out to be 0.0563.

Regarding “TTATACACTTGGGTTCTAACCTGTTGCAG (site TTATACACTCT)”, the “recombinant barcode read abundance (log10)” value was 1.98.

Regarding “TTATGAGCTTGGGTTCTAACCTGTTGCCG (site ATATGAGCTTG)”, the “recombinant barcode read abundance (log10)” value stood at 0.012.

As to “TTATGAGCTTGGGTTCTAACCTGTTGCCG (site TTATGAGCTCG)”, the “recombinant barcode read abundance (log10)” value came to 1.2.

Regarding “TTATGGTCTTGGGTTCTAACCTGTTGCTA (site TCTTGGTCTTA)”, the “recombinant barcode read abundance (log10)” value came out at 0.257.

For the sequence “TTATGGTCTTGGGTTCTAACCTGTTGCTA (site TTATGGTCTTA)”, the “recombinant barcode read abundance (log10)” value turned out to be 0.705.

Regarding “TTATTGTCTTGGGTTCTAACCTGTTGCCT (site TTATTGTCTAG)”, the “recombinant barcode read abundance (log10)” value was 1.37.

In the case of “TTATTGTCTTGGGTTCTAACCTGTTGCCT (site TTCTTGCCTAG)”, the “recombinant barcode read abundance (log10)” value amounted to 0.024.

Regarding “TTCAAACCTTGGGTTCTAACCTGTTGCCT (site TTCAAAACTAG)”, the “recombinant barcode read abundance (log10)” value came out at 0.0532.

Turning to “TTCAAACCTTGGGTTCTAACCTGTTGCCT (site TTCAAACCTAG)”, the “recombinant barcode read abundance (log10)” value turned out to be 0.612.

“TTCAAACCTTGGGTTCTAACCTGTTGCCT (site TTCAAAGCTAG)”: the “recombinant barcode read abundance (log10)” value is 0.0476.

Regarding “TTCAAACCTTGGGTTCTAACCTGTTGCCT (site TTCAAATCTAG)”, the “recombinant barcode read abundance (log10)” value was determined as 0.115.

Turning to “TTCAAATCTTGGGTTCTAACCTGTTGCCT (site TTCAAAACTAG)”, the “recombinant barcode read abundance (log10)” value was 0.0847.

Consider “TTCAAATCTTGGGTTCTAACCTGTTGCCT (site TTCAAACCTAG)”, for which the “recombinant barcode read abundance (log10)” value came out at 0.242.

Take “TTCAAATCTTGGGTTCTAACCTGTTGCCT (site TTCAAAGCTAG)”: the “recombinant barcode read abundance (log10)” value amounted to 0.182.

For the sequence “TTCAAATCTTGGGTTCTAACCTGTTGCCT (site TTCAAATCTAG)”, the “recombinant barcode read abundance (log10)” value was found to be 0.

On to “TTCAAGCCTTGGGTTCTAACCTGTTGCCT (site TTCAAGACTAG)”, for which the “recombinant barcode read abundance (log10)” value was found to be 0.0598.

For the sequence “TTCAAGCCTTGGGTTCTAACCTGTTGCCT (site TTCAAGCCTAG)”, the “recombinant barcode read abundance (log10)” value was determined as 0.329.

With “TTCAAGCCTTGGGTTCTAACCTGTTGCCT (site TTCAAGGCTAG)”, the “recombinant barcode read abundance (log10)” value amounted to 0.0261.

For “TTCAAGCCTTGGGTTCTAACCTGTTGCCT (site TTCAAGTCTAG)”, the “recombinant barcode read abundance (log10)” value amounted to 0.0767.

Take “TTCACACCTTGGGTTCTAACCTGTTGCCT (site TTCACACCTAG)”: the “recombinant barcode read abundance (log10)” value was determined as 0.385.

As for “TTCACACCTTGGGTTCTAACCTGTTGCCT (site TTCACAGCTAG)”, the “recombinant barcode read abundance (log10)” value came to 0.00569.

For the sequence “TTCAGGGCTTGGGTTCTAACCTGTTGCAG (site AGAGCCTCTTA)”, the “recombinant barcode read abundance (log10)” value came out at 0.111.

As to “TTCAGGGCTTGGGTTCTAACCTGTTGCAG (site TTCAGGGCTCT)”, the “recombinant barcode read abundance (log10)” value amounted to 1.99.

“TTCATACCTTGGGTTCTAACCTGTTGCTT (site GTCTTACCTAA)”: the “recombinant barcode read abundance (log10)” value was found to be 0.0129.

For “TTCATACCTTGGGTTCTAACCTGTTGCTT (site TTCATACCTAA)”, the “recombinant barcode read abundance (log10)” value turned out to be 0.0848.

For “TTCATGTCTTGGGTTCTAACCTGTTGCTT (site CTCATGTCTAA)”, the “recombinant barcode read abundance (log10)” value came to 0.138.

For the sequence “TTCATGTCTTGGGTTCTAACCTGTTGCTT (site TTCATGTCTAA)”, the “recombinant barcode read abundance (log10)” value was found to be 0.421.

“TTCCACACTTGGGTTCTAACCTGTTGCGG (site TTCCAAACTCC)”: the “recombinant barcode read abundance (log10)” value turned out to be 0.116.

On to “TTCCACACTTGGGTTCTAACCTGTTGCGG (site TTCCACACTCC)”, for which the “recombinant barcode read abundance (log10)” value came out at 1.04.

“TTCCGCTCTTGGGTTCTAACCTGTTGCCT (site ATCCGCTCTAG)”: the “recombinant barcode read abundance (log10)” value amounted to 0.112.

In the case of “TTCCGCTCTTGGGTTCTAACCTGTTGCCT (site CTCCGCTCTAG)”, the “recombinant barcode read abundance (log10)” value is 0.121.

Take “TTCCGCTCTTGGGTTCTAACCTGTTGCCT (site GTCCGCTCTAG)”: the “recombinant barcode read abundance (log10)” value came to 0.139.

Take “TTCCGCTCTTGGGTTCTAACCTGTTGCCT (site TTCCGCTCTAG)”: the “recombinant barcode read abundance (log10)” value was 1.26.

As to “TTCCTAGCTTGGGTTCTAACCTGTTGCCA (site ATCCTAGCTCG)”, the “recombinant barcode read abundance (log10)” value stood at 0.493.

As to “TTCCTAGCTTGGGTTCTAACCTGTTGCCA (site TTCCTAGCTTG)”, the “recombinant barcode read abundance (log10)” value came to 0.109.

Regarding “TTCCTGACTTGGGTTCTAACCTGTTGCCT (site CTCCTGCCTAG)”, the “recombinant barcode read abundance (log10)” value turned out to be 0.0475.

For “TTCCTGACTTGGGTTCTAACCTGTTGCCT (site TTCCTGACTAG)”, the “recombinant barcode read abundance (log10)” value was 1.69.

For “TTCGACGCTTGGGTTCTAACCTGTTGCCT (site TTAGACTCTAG)”, the “recombinant barcode read abundance (log10)” value is 0.152.

With “TTCGACGCTTGGGTTCTAACCTGTTGCCT (site TTCGACGCTAG)”, the “recombinant barcode read abundance (log10)” value stood at 1.03.

Take “TTCGACTCTTGGGTTCTAACCTGTTGCTA (site TACGACTCTAA)”: the “recombinant barcode read abundance (log10)” value was 0.137.

Consider “TTCGACTCTTGGGTTCTAACCTGTTGCTA (site TTCGACTCTTA)”, for which the “recombinant barcode read abundance (log10)” value worked out at 1.07.

Turning to “TTCGGACCTTGGGTTCTAACCTGTTGCGG (site GGGACCACTTA)”, the “recombinant barcode read abundance (log10)” value is 0.677.

For the sequence “TTCGGACCTTGGGTTCTAACCTGTTGCGG (site TTCGGACCTCC)”, the “recombinant barcode read abundance (log10)” value is 2.62.

As to “TTCTACCCTTGGGTTCTAACCTGTTGCCT (site TACTACCCTAG)”, the “recombinant barcode read abundance (log10)” value was determined as 0.0731.

On to “TTCTACCCTTGGGTTCTAACCTGTTGCCT (site TCCTACCCTAG)”, for which the “recombinant barcode read abundance (log10)” value was 0.149.

Turning to “TTCTACCCTTGGGTTCTAACCTGTTGCCT (site TGCTACCCTAG)”, the “recombinant barcode read abundance (log10)” value stood at 0.0636.

With “TTCTACCCTTGGGTTCTAACCTGTTGCCT (site TTCTACCCTAG)”, the “recombinant barcode read abundance (log10)” value is 0.449.

For the sequence “TTCTAGACTTGGGTTCTAACCTGTTGCCA (site GTCTATACTTG)”, the “recombinant barcode read abundance (log10)” value was 0.16.

“TTCTAGACTTGGGTTCTAACCTGTTGCCA (site TTCTAGACTTG)”: the “recombinant barcode read abundance (log10)” value came to 0.353.

“TTCTCGCCTTGGGTTCTAACCTGTTGCCT (site TTCACGCCTAG)”: the “recombinant barcode read abundance (log10)” value came to 0.0182.

Consider “TTCTCGCCTTGGGTTCTAACCTGTTGCCT (site TTCCCGCCTAG)”, for which the “recombinant barcode read abundance (log10)” value came to 0.536.

On to “TTCTCGCCTTGGGTTCTAACCTGTTGCCT (site TTCGCGCCTAG)”, for which the “recombinant barcode read abundance (log10)” value was 0.00706.

As for “TTCTCGCCTTGGGTTCTAACCTGTTGCCT (site TTCTCGCCTAG)”, the “recombinant barcode read abundance (log10)” value was 0.576.

As to “TTCTGTCCTTGGGTTCTAACCTGTTGCCT (site TTCTATCCTAG)”, the “recombinant barcode read abundance (log10)” value stood at 0.0361.

With “TTCTGTCCTTGGGTTCTAACCTGTTGCCT (site TTCTCTCCTAG)”, the “recombinant barcode read abundance (log10)” value was determined as 0.0821.

With “TTCTGTCCTTGGGTTCTAACCTGTTGCCT (site TTCTGTCCTAG)”, the “recombinant barcode read abundance (log10)” value was 0.799.

Regarding “TTCTGTCCTTGGGTTCTAACCTGTTGCCT (site TTCTTTCCTAG)”, the “recombinant barcode read abundance (log10)” value came to 0.0428.

Consider “TTCTGTTCTTGGGTTCTAACCTGTTGCCT (site TTCTCTTCTAG)”, for which the “recombinant barcode read abundance (log10)” value is 0.0281.

“TTCTGTTCTTGGGTTCTAACCTGTTGCCT (site TTCTGTTCTAG)”: the “recombinant barcode read abundance (log10)” value amounted to 0.196.

Turning to “TTCTTAACTTGGGTTCTAACCTGTTGCGG (site ACTGATCCTAT)”, the “recombinant barcode read abundance (log10)” value was determined as 0.0323.

Take “TTCTTAACTTGGGTTCTAACCTGTTGCGG (site TTCTTAACTCC)”: the “recombinant barcode read abundance (log10)” value turned out to be 0.532.

On to “TTGAACCCTTGGGTTCTAACCTGTTGCGT (site ATGAACCCTAC)”, for which the “recombinant barcode read abundance (log10)” value was found to be 0.303.

For “TTGAACCCTTGGGTTCTAACCTGTTGCGT (site TTGAACCCTAC)”, the “recombinant barcode read abundance (log10)” value worked out at 1.63.

As to “TTGAAGCCTTGGGTTCTAACCTGTTGCCT (site ATGAAGCCTAG)”, the “recombinant barcode read abundance (log10)” value came out at 0.41.

With “TTGAAGCCTTGGGTTCTAACCTGTTGCCT (site CTGAAGCCTAG)”, the “recombinant barcode read abundance (log10)” value is 0.0479.
